# Where a name gives a salt, the structure may show the parent alone. Read-outs that look alike come from different tables or passages of the source.
# Assays:
# [1] = tested on: cyclooxygenase (CO); details: cited from earlier work
# [2] = tested on: bronchospasm / LTB4; assay: Arachidonic acid-induced bronchospasm and LTB4 blood levels in anesthetized guinea pigs; format: in vivo
# Protocol: Intravenous administration of 10 mg/kg AA to anesthetized guinea pigs pretreated with indomethacin (10 mg/kg) and propranolol (0.1 mg/kg) results in a sustained bronchospasm which is associated with increased blood levels of LTB4. […] In the dog, intraarticular injection of rabbit anti-dog-dog IgG immune complexes into the knee joint results in an acute synovitis characterized by an influx of inflammatory cells into the joint space as well as an increase in synovial fluid levels of PGE2 and LTB4.
# [3] = tested on: interleukin-1; details: in vitro and in vivo; cited from earlier work
# [4] = tested on: C-reactive protein; details: rheumatoid arthritis patients; cited from earlier work
# [5] = in vivo; details: rat, in vivo
# Text: (§1) All NSAIDs are inhibitors of CO and their potency against this enzyme activity correlates well with clinical doses used in rheumatic diseases. There is also a correlation between CO inhibition (decreased PGE2) and the ability to induce gastric lesions in the fasted rat model. All NSAIDs induce at least some gastrointestinal lesions within their therapeutic range.
# [6] = tested on: gastrointestinal tract; assay: Ulcerogenicity in rats (gastric lesions, fasted rat model); details: rats
# Text: as §1
# [7] = tested on: Lewis strain laboratory rats; assay: In vivo alleviation of inflammation: polyarthritis (adjuvant, Mycobacterium butyricum) in rats, inhibition of paw volume increase; details: po; for ED50: Rattus norvegicus; for inhibition in vivo at 15 mg/kg: 15 mpk p.o.; for inhibition in vivo at 25 mg/kg: 25 mpk p.o.; for inhibition in vivo at 10 mg/kg: 10 mpk p.o.
# [8] = tested on: Prostaglandin E2; assay: Immune complex-induced synovitis in the dog knee joint: prostaglandin E2 levels; format: in vivo, Mongrel dogs; details: for Prostaglandin E2 Levels: radioimmunoassay
# Protocol: (§2) The accuracy of the puncture was assured by the aspiration of clear, viscous synovial fluid (time 0 sample). The syringe was removed and immune complexes (see below) were injected into the synovial space. The synovial space was re-entered at various time intervals and synovial fluid was withdrawn. The volume of fluid was recorded and then added to 3.0 ml of 0.3% saline. A sample was removed and the number of cells present counted with the use of a hemocytometer and microscope to enumerate the total number of cells in the joint. The remaining sample was centrifuged at 1000×g for 10 minutes and the supernatant analyzed for prostaglandin E2 levels and leukotriene B4 levels.
# (§3) To prepare the immune complex, two hundred milligrams of partially purified dog IgG was dissolved in 20 ml 0.9% sterile sodium chloride. The solution was clarified by centrifugation at 2230×G at 20° C. for 10 minutes. A 3 ml volume of the 10.0 mg/ml solution of dog IgG was mixed with 1 ml rabbit anti-dog IgG serum and incubated at room temperature for 20 minutes.
# (§4) Four milliliters of saturated ammonium sulfate were added to the mixture to precipitate the complex and all free dog IgG and rabbit gamma globulin. The sample was then centrifuged (as above) and the pellet resuspended in 10 ml 0.9% sterile saline. One ml of this solution was injected into a knee joint.
# (§5) Following the intra-articular administration of immune complexes synovial fluid samples were taken at 30 minutes, 1,2,4 and 24 hours, alternating knees for sampling (except at 24 hours when both knees were sampled).
# (§6) The articular joint was entered and a zero hour synovial fluid sample was removed. 1 ml of immune complexes was injected into the synovial joint of both legs. […] Synovial fluid samples were taken at 30 minutes, 1, 2 and 4 hours. All samples were analyzed for total granulocyte count using a laser flow cytometer. Prostaglandin and leukotriene concentrations were determined with standard RIA techniques.
# [9] = tested on: cyclooxygenase (CO); assay: Inhibition of cyclooxygenase (CO)
# [10] = tested on: Leukotriene B4; assay: Immune complex-induced synovitis in the dog knee joint: leukotriene B4 levels; format: in vivo, Mongrel dogs
# Protocol: as §2, §3, §4, §5, §6
# [11] = tested on: total cells in synovial fluid of dog knee joint; assay: Immune complex-induced synovitis in the dog knee joint: cellular infiltrate; format: in vivo, Mongrel dogs
# Protocol: as §2, §3, §4, §5, §6
# [12] = tested on: gastrointestinal; assay: Gastrointestinal side effects in dogs after one week; format: in vivo; details: doses up to 2700 mg/kg
# Text: as §1
# [13] = tested on: 5-lipoxygenase (5-LO); assay: Inhibition of 5-lipoxygenase (5-LO)
# [14] = rat, read-out: ED50 (effective dose to obtain a 50% inhibition of inflammation)
# [15] = 336 h, rat, read-out: % INH. p.o. (percentage inhibition of pad swelling)
smiles,measurement,setting,value
COc1ccc2c(c1)c(CC(=O)O)c(C)n2C(=O)c1ccc(Cl)cc1 [indomethacin],inhibition of cyclooxygenase enzyme by NSAIDs (in words),[1],only inhibit the cyclooxygenase enzyme
same,effect on LTB4 levels (in words),[2]; AA i.v. 10 mg/kg,no effect
same,effect on bronchospasm (in words),[2]; AA i.v. 10 mg/kg,no effect
"NC(=O)N1C(=O)C(=C(O)c2cccs2)c2cc(Cl)ccc21 [CP 66,248]",inhibition of interleukin-1 levels (in words),[3],could inhibit interleukin-1 levels in vitro and in vivo
same,C-reactive protein levels (in words),[4],reduction of C-reactive protein levels
"COc1ccc(-n2nc(CCC(=O)N(C)O)cc2-c2ccc(Cl)cc2)cc1 [Compound 3, 3-[5-(4-Chlorophenyl)-1-(4-methoxyphenyl)-3-pyrazolyl]-N-hydroxy-N-methylpropanamide]",TD50,[5],173 mg/kg
same,selectivity ratio,[5],58
same,ulcerogenicity in the gastrointestinal tract (in words),[6],reduced ulcerogenic activity
same,ulcerogenicity in the gastrointestinal tract (in words),[6]; listed as compound 3,lack of ulcerogenicity in the gastrointestinal tract
same,ED50,"[7]; adjuvant rat, read-out: dose which inhibits the inflammatory response of the adjuvant rat by 50 percent (ED50)",3 mg/kg
same,ED50,[7]; [14],4.1 mg/kg
same,Prostaglandin E2 Levels,"[8]; 25 mg/kg p.o., 1 Hr",2.34 ± 1 ng/mL
same,% I (inhibition) of prostaglandin E2 levels,"[8]; 25 mg/kg p.o., 2 Hr",38.2%
same,Prostaglandin E2 Levels,"[8]; 25 mg/kg p.o., 2 Hr",2.96 ± 0.92 ng/mL
same,% I (inhibition) of prostaglandin E2 levels,"[8]; 25 mg/kg p.o., 4 Hr",44.6%
same,Prostaglandin E2 Levels,"[8]; 25 mg/kg p.o., 4 Hr",2.27 ± 0.76 ng/mL
same,levels of PGE2 in the synovial fluid (in words),"[8]; 100 mg/kg orally, dog",reduces
same,Prostaglandin E2 Levels,"[8]; 100 mg/kg p.o., 0.5 Hr",1.8 ± 1.29 ng/mL
same,Prostaglandin E2 Levels,"[8]; 100 mg/kg p.o., 1 Hr",1.5 ± 1.05 ng/mL
same,% I (inhibition) of prostaglandin E2 levels,"[8]; 100 mg/kg p.o., 2 Hr",97.9%
same,Prostaglandin E2 Levels,"[8]; 100 mg/kg p.o., 2 Hr",0.1 ± 0.08 ng/mL
same,% I (inhibition) of prostaglandin E2 levels,"[8]; 100 mg/kg p.o., 4 Hr",42.4%
same,Prostaglandin E2 Levels,"[8]; 100 mg/kg p.o., 4 Hr",2.36 ± 0.53 ng/mL
same,PGE2 levels (in words),"[8]; i.v. 25 mg/kg or orally, dog",significantly inhibits
same,inhibition of cyclooxygenase (CO) (in words),[9],inhibits both the cyclooxygenase (CO) and 5-lipoxygenase (5-LO) enzymes
same,inhibition of leukotriene production (in words),"[2]; administered orally, guinea pigs",effective inhibitor of leukotriene production
same,Leukotriene B4,"[10]; 25 mg/kg p.o., 1 Hr",3.00 ± 1.2 ng/ml Synovial Fluid
same,Leukotriene B4,"[10]; 25 mg/kg p.o., 2 Hr",4.60 ± 2.10 ng/ml Synovial Fluid
same,Leukotriene B4,"[10]; 25 mg/kg p.o., 4 Hr",1.20 ± 0.6 ng/ml Synovial Fluid
same,levels of LTB4 in the synovial fluid (in words),"[10]; 100 mg/kg orally, dog",reduces
same,% I (inhibition) of leukotriene B4,"[10]; 100 mg/kg p.o., 0.5 Hr",25%
same,Leukotriene B4,"[10]; 100 mg/kg p.o., 0.5 Hr",0.93 ± 0.26 ng/ml Synovial Fluid
same,% I (inhibition) of leukotriene B4,"[10]; 100 mg/kg p.o., 1 Hr",69%
same,Leukotriene B4,"[10]; 100 mg/kg p.o., 1 Hr",0.80 ± 0.09 ng/ml Synovial Fluid
same,% I (inhibition) of leukotriene B4,"[10]; 100 mg/kg p.o., 2 Hr",39%
same,Leukotriene B4,"[10]; 100 mg/kg p.o., 2 Hr",2.46 ± 0.94 ng/ml Synovial Fluid
same,% I (inhibition) of leukotriene B4,"[10]; 100 mg/kg p.o., 4 Hr",37%
same,Leukotriene B4,"[10]; 100 mg/kg p.o., 4 Hr",0.88 ± 0.23 ng/ml Synovial Fluid
same,inhibition of leukotriene production (in words),"[10]; administered orally, dogs",effective inhibitor of leukotriene production
same,LTB4 levels (in words),"[10]; i.v. 25 mg/kg or orally, dog",significantly inhibits
same,Cellular Infiltrate Total Cells (× 10^6),"[11]; 25 mg/kg p.o., 0.5 HR",0.12 ± 0.04 × 10^6
same,Cellular Infiltrate Total Cells (× 10^6),"[11]; 25 mg/kg p.o., 1 HR",0.39 ± 0.19 × 10^6
same,% I (inhibition) of total cells,"[11]; 25 mg/kg p.o., 2 HR",7.4%
same,Cellular Infiltrate Total Cells (× 10^6),"[11]; 25 mg/kg p.o., 2 HR",5.74 ± 2.5 × 10^6
same,% I (inhibition) of total cells,"[11]; 25 mg/kg p.o., 4 HR",6.5%
same,Cellular Infiltrate Total Cells (× 10^6),"[11]; 25 mg/kg p.o., 4 HR",46.3 ± 27.9 × 10^6
same,cellular infiltrate (in words),"[11]; 100 mg/kg orally, dog",reduces the cellular infiltrate
same,Cellular Infiltrate Total Cells (× 10^6),"[11]; 100 mg/kg p.o., 0.5 HR",0.26 ± 0.23 × 10^6
same,Cellular Infiltrate Total Cells (× 10^6),"[11]; 100 mg/kg p.o., 1 HR",0.13 ± 0.07 × 10^6
same,% I (inhibition) of total cells,"[11]; 100 mg/kg p.o., 2 HR",78%
same,Cellular Infiltrate Total Cells (× 10^6),"[11]; 100 mg/kg p.o., 2 HR",1.35 ± 0.55 × 10^6
same,% I (inhibition) of total cells,"[11]; 100 mg/kg p.o., 4 HR",55.2%
same,Cellular Infiltrate Total Cells (× 10^6),"[11]; 100 mg/kg p.o., 4 HR",22.2 ± 6.6 × 10^6
same,total cell number / cellular infiltration (in words),"[11]; i.v. 25 mg/kg or orally, dog",significantly inhibits
same,significant gastrointestinal side effects (in words),[12],no significant gastrointestinal side effects
same,inhibition of 5-lipoxygenase (5-LO) (in words),[13],inhibits both the cyclooxygenase (CO) and 5-lipoxygenase (5-LO) enzymes
COc1ccc(-n2nc(CCNC(=O)C(=O)NO)cc2-c2ccc(Cl)cc2)cc1 [Compound 165],inhibition in vivo at 15 mg/kg,[7]; [15],41%
COc1ccc(-n2nc(CCC(=O)NC3=NCCS3)cc2-c2ccc(Cl)cc2)cc1 [Compound 85],inhibition in vivo at 40 mg/kg,"[7]; 336 h, 40 mpk p.o., rat, read-out: % INH. p.o. (percentage inhibition of pad swelling)",40%
COc1ccc(-n2nc(CCC(=O)Nc3nnn[nH]3)cc2-c2ccc(Cl)cc2)cc1 [Compound 90],inhibition in vivo at 15 mg/kg,[7]; [15],32%
"CCN(CC)C(=O)CCc1cc(-c2ccc(Cl)cc2)n(-c2ccc(OC)cc2)n1 [Compound 28, 3-[5-(4-Chlorophenyl)-1-(4-methoxyphenyl)-3-pyrazolyl]-N,N-diethylpropanamide]",inhibition in vivo at 25 mg/kg,[7]; [15],44%
"COC(=O)c1ccc(/C=C/CCc2cc(-c3ccc(Cl)cc3)n(-c3ccc(OC)cc3)n2)cc1 [Compound 25, 3-[4-(4-Carbomethoxyphenyl)-3(E)-butenyl]-5-(4-chlorophenyl)-1-(4-methoxyphenyl) pyrazole]",inhibition in vivo at 25 mg/kg,[7]; [15],18%
"CCOC(=O)C(=O)NCCc1cc(-c2ccc(Cl)cc2)n(-c2ccc(OC)cc2)n1 [Compound 160, Ethyl 2-[5-(4-chlorophenyl)-1-(4-methoxyphenyl)-3-pyrazolyl]-ethylamine-N-oxoacetate]",inhibition in vivo at 15 mg/kg,[7]; [15],9%
"COc1ccc(-n2nc(CCCO)cc2-c2ccc(Cl)cc2)cc1 [Compound 2, 5-(4-Chlorophenyl)-3-(3-hydroxypropyl)-1-(4-methoxyphenyl) pyrazole]",ED50,[7]; [14],3.6 mg/kg
"COc1ccc(-n2nc(CCC(=O)N(C)O)cc2-c2ccc(Cl)cc2)cc1 [Compound 3a, 3-[5-(4-Chlorophenyl)-1-(4-methoxyphenyl)-3-pyrazolyl] -N-hydroxy-N-methylpropanamide sodium salt monohydrate]",inhibition in vivo at 10 mg/kg,[7]; [15],65%
"COc1ccc(-n2nc(CCC(=O)NCC(=O)O)cc2-c2ccc(Cl)cc2)cc1 [Compound 66, N-Carboxymethyl-3-[5-(4-chlorophenyl)-1-(4-methoxyphenyl)-3-pyrazolyl]propanamide]",inhibition in vivo at 25 mg/kg,[7]; [15],62%
COc1ccc(-n2nc(CCC(=O)N(C)OC(=O)CCCC(=O)O)cc2-c2ccc(Cl)cc2)cc1 [Compound 132],inhibition in vivo at 10 mg/kg,[7]; [15],30%
CSc1ccc(-n2nc(CCCO)cc2-c2ccc(Cl)cc2)cc1 [Compound 47],inhibition in vivo at 25 mg/kg,[7]; [15],48%
COc1ccc(-n2nc(CCC(=O)O)cc2-c2ccc(C)cc2)cc1 [Compound 105],inhibition in vivo at 10 mg/kg,[7]; [15],87%
